One experiment concerns the target T1, glucose transporter (Homo sapiens, UniProt P11166).
T1 construct: intact human erythrocytes labeled with the glucose transporter-specific probe (glucose-GAP); endogenous in cells; host or cells: human erythrocytes
T1 sequence (P11166 1-492): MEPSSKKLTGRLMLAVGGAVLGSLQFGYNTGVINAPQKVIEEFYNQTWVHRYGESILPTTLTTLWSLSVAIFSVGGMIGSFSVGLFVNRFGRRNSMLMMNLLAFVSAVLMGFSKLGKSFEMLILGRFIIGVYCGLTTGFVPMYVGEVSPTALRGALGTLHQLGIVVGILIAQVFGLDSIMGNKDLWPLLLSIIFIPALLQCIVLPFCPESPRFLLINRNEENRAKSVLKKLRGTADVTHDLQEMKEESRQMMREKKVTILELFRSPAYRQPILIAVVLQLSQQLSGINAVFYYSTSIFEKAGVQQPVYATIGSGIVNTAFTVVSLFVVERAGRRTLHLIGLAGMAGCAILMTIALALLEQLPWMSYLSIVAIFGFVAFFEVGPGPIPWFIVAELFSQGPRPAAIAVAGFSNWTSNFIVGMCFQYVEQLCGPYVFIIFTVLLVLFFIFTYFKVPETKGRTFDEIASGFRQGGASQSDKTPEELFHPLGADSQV
Particulars: glucose-glucose transporter complex; Sogin and Hinkle; read-out: dissociation constant; cited from earlier work.

The subject of experiment [1] is human foreskin fibroblasts. As to the kind of experiment: Morphology and attachment of cultured fibroblasts on exposure to probe or ligand. In kind it is cell-based. How it is done:
Human foreskin fibroblasts were cultured to subconfluency on glass discs placed in culture dishes using Dulbecco's modified Eagle's medium (Gibco Laboratories, Grand Island, NY, U.S.A.). For labeling with glucose-GAP, glass discs with attached fibroblasts were removed from the culture dishes and washed twice with HBS. The cells were then exposed to fresh HBS (experimental) or HBS containing 400 mM glucose or 0.4 uM cytochalasin B (controls) for 5 min at room temperature. […] Cytochem. […] The discs were then placed in a drop of HBS and irradiated on ice as described above for erythrocytes. For labeling with ouabain-GAP cells grown in culture dishes were washed twice with HBS and exposed to HBS containing 400 mM glucose (experimental) or HBS containing 400 mM glucose plus 2 mM ouabain (control) for 15 min at 37° C. An equal volume of ouabain-GAP was then added followed by incubation for 30 min in the dark at room temperature. At this point, the presence of ouabain or ouabain-GAP caused the cells to detach from the substrate. The cells were recovered and unbound probe was removed by centrifugation in HBS. Cells were resuspended in fresh HBS and irradiated for 15 min in a water-jacketed cell at 4° C. using the light source described above.

Another experiment concerns the target ATPase. Particulars: ouabain-ATPase complex; Erdmann and Hasse; read-out: dissociation constant; cited from earlier work.

`OC[C@H]1OC(O)[C@H](O)[C@@H](O)[C@@H]1O` (stereo partly drawn) [glucose]: the Kd at glucose transporter was 50 mM. On to `C[C@@H]1O[C@@H](O[C@H]2C[C@@H](O)[C@]3(CO)[C@H]4[C@H](O)C[C@]5(C)[C@@H](C6=CC(=O)OC6)CC[C@]5(O)[C@@H]4CC[C@]3(O)C2)[C@H](O)[C@H](O)[C@H]1O` [ouabain], for which the “morphological response of fibroblasts” value in experiment [1] was “caused the cells to lift from the substrate and take on a rounded morphology”. At ATPase, the Kd was 2.8 nM.

These data come from patent US4879220A (priority 1986, dated 1989).
